Series [1] can be described thus: Microsomal liver assay (rate of oxidative metabolism). It counts as in vitro ADME. As to conditions: human liver microsomes; 3 μM test compound, 1 mg/mL microsomal proteins, NADPH, 37° C. How it is done:
Mouse and rat liver microsomes were purchased from XenoTech LLC (Kansas City, Kans.), and human liver microsomes were obtained from BD Gentest (Woburn, Mass.).
The oxidative metabolism in liver microsomes of various species was studied under the following condition: 3 μM test compound (organic solvent content <0.1%), 1 mg/mL microsomal proteins, 1 mM β-nicotinamide adenine dinucleotide phosphase (β-NADPH), 100 mM phosphate buffer (pH 7.4), and 6.7 mM magnesium chloride. The reaction (n=3) was initiated by the addition of NADPH followed by incubation at 37° C. for 20 min. Aliquots of samples (0.1 mL) were taken at 0, 5, and 20 min, and the reaction was quenched by the addition of three volumes of acetonitrile. Samples were stored at −20° C. until analysis.
The rate of oxidation in liver microsomes was determined from the following equation: rate (nmol/min/mg protein)=k*C0/Cprotein, where k (1/min) is the turnover rate constant estimated from non-linear regression of the percent compound remaining (y)-time (t) curve using the equation y=y0*exp(−k*t); C0 is initial drug concentration (μM), and Cprotein is microsomal protein concentration (mg/mL).
Rates of metabolism are “binned” (classified) as follows: […]
On the technique in general: Microsomes from liver hold many membrane-bound enzymes, among them those of drug oxidation.

The next series has as its target CYP 2C19 (Homo sapiens, UniProt P33261). Description: CYP assay. It is filed as in vitro ADME. As to conditions: CYP assay per Drug Metabolism and Disposition 28, 1440-1448 (2000). The protocol: The CYP assay was conducted according to the procedure in Drug Metabolism and Disposition, 28, 1440-1448 (2000).

Sequence of CYP 2C19 (P33261 whole entry): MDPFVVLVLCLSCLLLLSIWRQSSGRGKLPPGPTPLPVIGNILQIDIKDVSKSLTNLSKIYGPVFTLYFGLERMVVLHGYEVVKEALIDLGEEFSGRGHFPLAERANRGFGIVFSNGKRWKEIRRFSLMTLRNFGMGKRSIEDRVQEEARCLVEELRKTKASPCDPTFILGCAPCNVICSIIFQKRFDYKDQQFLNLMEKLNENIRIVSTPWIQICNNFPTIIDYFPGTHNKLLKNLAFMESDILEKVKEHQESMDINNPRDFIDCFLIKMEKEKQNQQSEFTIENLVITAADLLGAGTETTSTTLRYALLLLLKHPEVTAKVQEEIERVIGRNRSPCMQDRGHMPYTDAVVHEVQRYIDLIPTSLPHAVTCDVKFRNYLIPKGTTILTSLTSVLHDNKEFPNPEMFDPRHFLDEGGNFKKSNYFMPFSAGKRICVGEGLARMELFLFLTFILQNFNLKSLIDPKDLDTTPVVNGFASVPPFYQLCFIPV

On to `CN1C(=O)N(c2cc(Cl)cc(Cl)c2)C(=O)[C@]12CN(c1ccccn1)C[C@H]2c1ccc(C#N)cc1` (relative stereo) [4-[(5S*,9R*)-3-(3,5-dichlorophenyl)-1-methyl-2,4-dioxo-7-pyridin-2-yl-1,3,7-triazaspiro[4.4]non-9-yl]-benzonitrile], for which the rate of metabolism in series [1] turned out to be 0.2 nmol/min/mg. At CYP 2C19, this molecule came in with an IC50 of 0.11 µM.

In turn, `CN1C(=O)N(c2cc(Cl)cc(Cl)c2)C(=O)[C@]12CN(c1ccc(C(=O)O)cn1)C[C@H]2c1ccc(C#N)cc1` [IId, 6-[(5S,9R)-9-(4-cyanophenyl)-3-(3,5-dichlorophenyl)-1-methyl-2,4-dioxo-1,3,7-triazaspiro[4.4]non-7-yl]nicotinic acid] returned a rate of metabolism in series [1] of 0.01 ± 0.01 nmol/min/mg. The molecule also came in with an IC50 on CYP 2C19 of 38.2 ± 2.22 µM.

Broadly, the IC50 is the concentration that inhibits the measured activity by half. The low end stands for inhibition by little substance, the high end for a need for much substance.

The values are drawn from patent US20060142319A1, “Pyridyl-substituted spiro-hydantoin crystalline forms and process” (priority 2004, published 2006).
